Series [1] concerns Influenza A virus. Kind of series: Antiviral activity against Influenza A virus (A/Puerto Rico/8/1934(H1N1)) infected in MDCK cells assessed as reduction in HA mRNA level at 1 ug/ml measured after 24 hrs post infection by qRT-PCR analysis. Type of series: functional, organism-based. As to conditions: dose 1.0 µg/ml. On the technique in general: Quantitative PCR measures a nucleic acid by following its amplification.

The subject of series [2] is RAW264.7. Description: Anti-inflammatory activity against Influenza A virus (A/Puerto Rico/8/1934(H1N1)) s induced mouse RAW264.7 cells assessed as suppression of NF kappa B expression level 1.5 ug/ml by luciferase reporter assay. Type of series: functional, cell-based. The conditions noted are these: dose 1.5 µg/ml. On the technique in general: A reporter such as luciferase makes a cellular process visible.

Series [3] deals with RAW264.7. Description: Anti-inflammatory activity against mouse RAW264.7 cells assessed as reduction in Influenza A virus (A/Puerto Rico/8/1934(H1N1)) induced TNF alpha level at 1 ug/ml by ELISA method. Type of series: functional. As to conditions: dose 1 µg/ml.
In series [4] the test system is RAW264.7. Description: Anti-inflammatory activity against mouse RAW264.7 cells assessed as reduction in influenza A virus induced IL-6 level at 1 ug/ml by qRT- PCR. Format: functional, cell-based. The conditions noted are these: dose 1.0 µg/ml.
The subject of series [5] is RAW264.7. Kind of series: Anti-inflammatory activity against mouse RAW264.7 cells assessed as reduction in Influenza A virus (A/Puerto Rico/8/1934(H1N1)) induced TNF alpha level at 5 ug/ml by ELISA method. Type of series: functional. The conditions noted are these: dose 5 µg/ml.
Series [6] concerns RAW264.7. Description: Anti-inflammatory activity against mouse RAW264.7 cells assessed as reduction in influenza A virus induced TNF alpha level at 1 ug/ml by qRT- PCR. Type of series: functional, cell-based. The conditions noted are these: dose 1.0 µg/ml.
Series [7] relates to RAW264.7. Description: Anti-inflammatory activity against mouse RAW264.7 cells assessed as reduction in LPS induced IL-1 beta level at 1 ug/ml by qRT-PCR analysis. Type of series: functional, cell-based. The conditions noted are these: dose 1.0 µg/ml.
Series [8] concerns Influenza A virus. Description: Induction of morphological changes in Influenza A Puerto Rico/8/1934/H1N1 assessed as increase in broken edge of the virus incubated for 30 mins by transmission electron microscopic analysis. As to conditions: dose 10-50 µg/ml, DDE = dose-dependent effect. Format: functional, organism-based.
The nature of series [9]: Cmax in Kunming mouse at 10 mg/kg, ip by HPLC analysis. Type of series: ADME, organism-based. More on the design: dose 10 mg/kg, route ip. As to conditions: in vivo.
The next series relates to Mus musculus. Description: Antiviral activity against Kunming mouse infected with Influenza A virus (A/Puerto Rico/8/1934(H1N1)) assessed as recovery in body weight at 5 mg/kg, ip administered twice a day with a time interval of 12 hrs for 4 days measured from day 8 upto 15 days (Rvb =18.02 g). Format: functional. The conditions noted are these: time 15 day.
In series [10] the test system is Influenza A virus. Description: Antiviral activity against influenza A/Thailand/Kan353/2004 infected in MDCK cells assessed as inhibition of syncytium formation at 5 ug/ml incubated for 3 hrs by giemsa staining based assay relative to control. Format: functional. Details: scale not given: the % may be the effect or the level left. The conditions noted are these: dose 5 µg/ml.

Series [11] concerns RAW264.7. Kind of series: Anti-inflammatory activity against mouse RAW264.7 cells assessed as reduction in LPS induced TNF alpha level at 1 ug/ml by qRT-PCR analysis. Format: functional, cell-based. As to conditions: dose 1.0 µg/ml.
The test system of series [12] is Influenza A virus. Kind of series: Antiviral activity against Influenza A virus A/FM/1/47 infected in MDCK cells incubated for 1 hr by MTT assay. Format: functional, organism-based. The conditions noted are these: A/FM/1/47, MDCK.
Series [13] in a line: Cytotoxicity against MDCK cells by CCK-8 assay. Format: toxicity, cell-based, Canis lupus familiaris. The conditions noted are these: dog. (In general: Tetrazolium assays rely on reduction of a dye to a coloured formazan, in cell work by metabolically active cells.)
Series [14] has as its system Influenza A virus. Description: Antiviral activity against Influenza A virus (A/Puerto Rico/8/1934(H1N1)) infected in MDCK cells assessed as reduction in virus induced cytopathic effect pretreated with compound incubated for 1 hrs by MTT assay. Format: functional, organism-based.

pIC50: −log10 of the molar value. Calls of active or inactive are those of the source. The calls are words filed in the database; no cut-off is given here. Where a SMILES comes first, the peptide text is derived from it. Bridges are numbered along the chain shown (N, C = ends). Roman numbers before positions name the chains, in order. Side-chain parts run from the residue outwards. The star is where a group is joined. Fmoc = O=C(OCC1c2ccccc2-c2ccccc21)*

Turning to `NCCCC[C@H](NC(=O)OCC1c2ccccc2-c2ccccc21)C(=O)N[C@@H](CCCCN)C(=O)N[C@@H](Cc1c[nH]c2ccccc12)C(=O)N[C@@H](CCCCN)C(=O)NCCCC[C@H](NC(=O)[C@H](CCCCN)NC(=O)[C@H](Cc1c[nH]c2ccccc12)NC(=O)[C@H](CCCCN)NC(=O)[C@H](CCCCN)NC(=O)OCC1c2ccccc2-c2ccccc21)C(=O)NCCCC[C@H](NC(=O)[C@H](CCCCNC(=O)[C@H](CCCCN)NC(=O)[C@H](Cc1c[nH]c2ccccc12)NC(=O)[C@H](CCCCN)NC(=O)[C@H](CCCCN)NC(=O)OCC1c2ccccc2-c2ccccc21)NC(=O)[C@H](CCCCN)NC(=O)[C@H](Cc1c[nH]c2ccccc12)NC(=O)[C@H](CCCCN)NC(=O)[C@H](CCCCN)NC(=O)OCC1c2ccccc2-c2ccccc21)C(=O)NCC(=O)O` (I: Fmoc-KKWKK([Lys-Trp-Lys-Lys-Fmoc])KG-OH / II: Fmoc-KKWKK([Lys-Trp-Lys-Lys-Fmoc]); amide I:6-II:C), the outcome in the series with Influenza A virus [1], in the series with RAW264.7 [2], with RAW264.7 [4], in the series with RAW264.7 [6], in the series with RAW264.7 [7] and in the series with RAW264.7 [11] was Active. Moreover, the Activity in the series on RAW264.7 [3] is 203 pg/mL; in the series on RAW264.7 [5] it was 328.4 pg/mL; with Influenza A virus [8] it was “Dde”; with Mus musculus it was 26.99 g; in the series on Influenza A virus [10] it was 90%. This compound yielded a Cmax in series [9] of 5020 ng/mL. Also, the figures for the negative logarithm of the IC50 (pIC50) in the series with Influenza A virus [12] and with Influenza A virus [14] were 6.77 and 6.62, respectively. In series [13], this compound gave a CC50 of 37800 nM.

As usually defined, the Cmax is the peak of the concentration-time curve. A word on the pIC50: it is the negative decadic logarithm of the IC50, by convention in mol/L. What is called CC50 is the concentration at which the toxic effect on the cells reaches its halfway point.

Source of the values: ChEMBL document CHEMBL5131467, “Multivalent peptide dendrimers inhibit the fusion of viral-cellular membranes and the cellular NF-κB signaling pathway” (Eur J Med Chem, 2022).
